Values of other authors in US20250065012A1, “DIRECTIONAL AND TEMPORAL RELEASE OF DRUGS FROM MEDICAL DEVICES” (NANO THERAPEUTICS PRIVATE LIMITED, priority 2022, published 2025).
Counter-ions that a name gives are not always drawn.

How the values were obtained:
[1] = injected intravenously
platelet aggregation = conditions: after systemic administration

increase in bleeding time [1]	increase in clotting time [1]	SMILES	platelet aggregation inhibition (platelet aggregation)
3-4 fold	3-4 fold	CCCCS(=O)(=O)N[C@@H](Cc1ccc(OCCCCC2CCNCC2)cc1)C(=O)O [Tirofiban HCl]	–
–	–	CCCCS(=O)(=O)N[C@@H](Cc1ccc(OCCCCC2CCNCC2)cc1)C(=O)O [Tirofiban]	up to 96%
